Assay [1] can be described thus: (§1) Transient Replicon Assay: In a transient set-up, a Huh-7 lunet hepatoma cell line was transiently transfected with an autonomously replicating RNA encoding a bi-cistronic expression construct. This construct comprises a firefly luciferase reporter gene preceding the NS3-NS5B subgenomic region of HCV (genotype 1a H77 or 1b Con1). Translation of the HCV subgenomic region is mediated by an internal ribosome entry site of encephalomyocarditis virus. The construct is furthermore flanked by 5' and 3' untranslated regions of HCV (genotype 1a H77 or 1b Con 1, respectively), which allow for replication of the RNA. In addition to the wild-type constructs, site-directed mutations were introduced into the transient HCV genotype 1b replicon in the gene encoding for the non-structural protein 5A (NS5A). More precisely, amino acid residues 28, 30, 31 and 93 in NS5A were independently altered. Cells were plated in 384 well plates in the presence of test and control compounds, which were added in various concentrations. Following an incubation of two days, replication of the HCV subgenomic replicon RNA was measured by assaying luciferase activity (using standard luciferase assay substrates and reagents and a Perkin Elmer ViewLux™ ultraHTS microplate imager). HCV subgenomic replicon containing cells in the control cultures have high luciferase expression in the absence of any inhibitor. The inhibitory activity of the compound was monitored, enabling a dose-response curve for each test compound. In kind it is cell-based.

The nature of assay [2]: Stable Replicon Assay: The assay utilized the stably transfected cell line Huh-7 luc/neo (hereafter referred to as Huh-Luc). This cell line harbors an RNA encoding a bicistronic expression construct comprising the wild type NS3-NS5B regions of HCV type 1b translated from an Internal Ribosome Entry Site (IRES) from encephalomyocarditis virus (EMCV), preceded by a reporter portion (FfL-luciferase), and a selectable marker portion (neoR, neomycine phosphotransferase). The construct is flanked by 5' and 3' NTRs (non-translated regions) from HCV type 1b. Continued culture of the replicon cells in the presence of G418 (neoR) is dependent on the replication of the HCV RNA. The stably transfected replicon cells that replicate HCV RNA autonomously and to high levels, encoding inter alia luciferase, were used for screening the antiviral compounds. The replicon cells were plated in 384 well plates in the presence of the test and control compounds which were added in various concentrations. Following an incubation of three days, HCV replication was measured by assaying luciferase activity (using standard luciferase assay substrates and reagents and a Perkin Elmer ViewLux™ ultraHTS microplate imager). Replicon cells in the control cultures have high luciferase expression in the absence of any inhibitor. The inhibitory activity of the compound was monitored on the Huh-Luc cells, enabling a dose-response curve for each test compound.

In a further assay the target is Nonstructural protein 5A (Hepatitis C virus, UniProt Q5L478). The description is as §1. The class given is cell-based.

Broadly, the EC50 is the concentration needed to bring the measured effect to its halfway point.

Molecules are shown by their SMILES.

For `CC[C@H](C)[C@H](NC(=O)OC)C(=O)N1CCC[C@H]1c1nc2cc(-c3ccc4cc(-c5cnc([C@@H]6CCCN6C(=O)[C@@H](NC(=O)OC)[C@@H](C)OC)[nH]5)ccc4c3)ccc2[nH]1`, the 50% effective concentration (EC50) in assay [1] amounted to 4 pM; in assay [2], 3 pM.

With `COC(=O)N[C@H](C(=O)N1CCC[C@H]1c1nc2ccc(-c3ccc4cc(-c5cnc([C@@H]6CCCN6C(=O)[C@@H](NC(=O)OC)[C@@H](C)OC)[nH]5)ccc4c3)cc2[nH]1)C(C)C`, in assay [2], the concentration giving a half-maximal response (EC50) amounted to 6 pM.

Take `COC(=O)N[C@H](C(=O)N1CCC[C@H]1c1ncc(-c2ccc3cc(-c4ccc5nc([C@@H]6CCCN6C(=O)[C@@H](NC(=O)OC)[C@@H](C)OC)[nH]c5c4)ccc3c2)[nH]1)C(C)C`: the 50% effective concentration (EC50) at Nonstructural protein 5A was below 17 pM.

Consider `CC[C@@H](C)[C@H](NC(=O)OC)C(=O)N1CCC[C@H]1c1ncc(-c2ccc3cc(-c4ccc5nc([C@@H]6CCCN6C(=O)[C@@H](NC(=O)OC)[C@H](C)CC)[nH]c5c4)ccc3c2)[nH]1`, for which the EC50 in assay [1] came out at 2 pM; in assay [2] it was 3 pM.

On to `CC[C@H](C)[C@H](NC(=O)OC)C(=O)N1CCC[C@H]1c1nc2ccc(-c3ccc4cc(-c5cnc([C@@H]6CCCN6C(=O)[C@@H](NC(=O)OC)C(C)C)[nH]5)ccc4c3)cc2[nH]1`, for which the EC50 at Nonstructural protein 5A is below 13 pM.

Values taken from ChEMBL document CHEMBL3886209, “Benzimidazole-imidazole derivatives” (2016).
